From patent publication US8703934B2, “Substituted 4-amino-3,5-dicyano-2-thiopyridines and use thereof” (Bayer Intellectual Property GmbH, priority 2006, dated 2014)

Columns and labels:
Format in all cases: cell-based
adenosine A1 receptor = biological target: T1, adenosine A1 receptor (Homo sapiens, UniProt P30542); assay: Indirect determination of adenosine agonism by way of gene expression (luciferase, CHO cells), A1; details: CHO cells stably transfected with A1 receptor cDNA; 1 μM forskolin; 50% inhibition of luciferase answer
T1 construct: expressed in transfected cells; host or cells: CHO (Chinese Hamster Ovary)
T1 sequence (P30542 1-326): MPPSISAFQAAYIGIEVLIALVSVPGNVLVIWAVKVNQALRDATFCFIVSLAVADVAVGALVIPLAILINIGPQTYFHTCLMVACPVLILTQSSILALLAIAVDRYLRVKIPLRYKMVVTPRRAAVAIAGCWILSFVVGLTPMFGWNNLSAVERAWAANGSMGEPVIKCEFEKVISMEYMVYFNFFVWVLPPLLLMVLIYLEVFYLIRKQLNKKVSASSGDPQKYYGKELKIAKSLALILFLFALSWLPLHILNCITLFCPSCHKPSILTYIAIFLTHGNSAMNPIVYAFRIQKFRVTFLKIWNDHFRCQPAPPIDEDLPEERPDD
Excerpt: (§1) B-1. Indirect Determination of the Adenosine Agonism by Way of Gene Expression
(§2) Cells of the CHO (Chinese Hamster Ovary) permanent cell line are transfected stably with the cDNA for the adenosine receptor subtypes A1, A2a and A2b. The adenosine A1 receptors are coupled to the adenylate cyclase by way of G, proteins, while the adenosine A2a and A2b receptors are coupled by way of Gs proteins. In correspondence with this, the formation of cAMP in the cell is inhibited or stimulated, respectively. After that, expression of the luciferase is modulated by way of a cAMP-dependent promoter. The luciferase test is optimized, with the aim of high sensitivity and reproducibility, low variance and good suitability for implementation on a robot system, by varying several test parameters, such as cell density, duration of the growth phase and the test incubation, forskolin concentration and medium composition. The following test protocol is used for pharmacologically characterizing cells and for the robot-assisted substance screening:
(§3) The stock cultures are grown, at 37° C. and under 5% CO2, in DMEM/F12 medium containing 10% FCS (fetal calf serum) and in each case split 1:10 after 2-3 days. The test cultures are seeded in 384-well plates with 2000 cells per well and grown at 37° C. for approx. 48 hours. The medium is then replaced with a physiological sodium chloride solution (130 mM sodium chloride, 5 mM potassium chloride, 2 mM calcium chloride, 20 mM HEPES, 1 mM magnesium chloride hexahydrate, 5 mM sodium bicarbonate, pH 7.4). The substances to be tested, which are dissolved in DMSO, are pipetted into the test cultures (maximum final concentration of DMSO in the test mixture: 0.5%) in a dilution series of from 5×10^−11M to 3×10^−6M (final concentration). 10 minutes later, forskolin is added to the A1 cells and all the cultures are subsequently incubated at 37° C. for four hours. After that, 35 μl of a solution which is composed of 50% lysis reagent (30 mM disodium hydrogenphosphate, 10% glycerol, 3% TritonX100, 25 mM TrisHCl, 2 mM dithiotreitol (DTT), pH 7.8) and 50% luciferase substrate solution (2.5 mM ATP, 0.5 mM luciferin, 0.1 mM coenzyme A, 10 mM tricine, 1.35 mM magnesium sulfate, 15 mM DTT, pH 7.8) are added to the test cultures, which are shaken for approx 1 minute and the luciferase activity is measured using a camera system. The EC50 values are determined, i.e., the concentrations at which 50% of the luciferase answer is inhibited in the case of the A1 cell, and, respectively, 50% of the maximum stimulation with the corresponding substance is achieved in the case of the A2b and A2a cells. […] Pharmacol., 357 (1998), 1-9).

adenosine A2b receptor = biological target: T2, adenosine A2b receptor (Homo sapiens, UniProt P29275); assay: Indirect determination of adenosine agonism by way of gene expression (luciferase, CHO cells), A2b; details: CHO cells stably transfected with A2b receptor cDNA; 50% of maximum luciferase stimulation
T2 construct: expressed in transfected cells; host or cells: CHO (Chinese Hamster Ovary)
T2 sequence (P29275 1-332): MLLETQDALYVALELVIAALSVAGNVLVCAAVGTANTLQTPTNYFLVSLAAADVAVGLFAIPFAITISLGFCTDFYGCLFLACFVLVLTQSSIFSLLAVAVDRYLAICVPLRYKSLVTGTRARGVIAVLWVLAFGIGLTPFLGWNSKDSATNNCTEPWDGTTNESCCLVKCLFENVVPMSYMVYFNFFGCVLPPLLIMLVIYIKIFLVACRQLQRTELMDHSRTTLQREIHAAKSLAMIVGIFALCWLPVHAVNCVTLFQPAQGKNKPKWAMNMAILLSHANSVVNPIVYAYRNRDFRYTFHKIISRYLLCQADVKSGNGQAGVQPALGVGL
Excerpt: as §1, §2, §3

adenosine A2a receptor = biological target: T3, adenosine A2a receptor (Homo sapiens, UniProt P29274); assay: Indirect determination of adenosine agonism by way of gene expression (luciferase, CHO cells), A2a; details: CHO cells stably transfected with A2a receptor cDNA; 50% of maximum luciferase stimulation
T3 construct: expressed in transfected cells; host or cells: CHO (Chinese Hamster Ovary)
T3 sequence (P29274 whole entry): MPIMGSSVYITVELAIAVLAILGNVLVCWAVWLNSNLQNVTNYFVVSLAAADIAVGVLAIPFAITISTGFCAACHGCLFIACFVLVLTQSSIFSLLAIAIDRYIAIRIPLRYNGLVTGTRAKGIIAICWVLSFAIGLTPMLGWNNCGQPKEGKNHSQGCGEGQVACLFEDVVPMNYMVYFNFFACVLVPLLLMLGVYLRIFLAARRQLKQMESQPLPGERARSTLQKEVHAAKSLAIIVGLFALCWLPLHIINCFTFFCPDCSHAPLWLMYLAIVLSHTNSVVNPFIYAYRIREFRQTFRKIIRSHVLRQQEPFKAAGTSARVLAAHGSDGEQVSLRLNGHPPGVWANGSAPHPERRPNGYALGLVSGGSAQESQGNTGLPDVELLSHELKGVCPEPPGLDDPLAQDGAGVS
Excerpt: as §1, §2, §3

| Structure (SMILES) | EC50 (adenosine A1 receptor) [nM] | EC50 (adenosine A2b receptor) [nM] | EC50 (adenosine A2a receptor) [nM] |
| --- | --- | --- | --- |
| N#Cc1c(N)nc(SCc2csc(-c3ccc(Cl)cc3)n2)c(C#N)c1N1CCCCC1 [Example 2] | 0.5 | 44 | 385 |
| N#Cc1cnc(SCc2csc(-c3ccc(Cl)cc3)n2)c(C#N)c1N1CCCCC1 [Example 34, 2-({[2-(4-Chlorophenyl)-1,3-thiazol-4-yl]methyl}thio)-4-(piperidin-1-yl)pyridine-3,5-dicarbonitrile] | 46 | > 3000 | > 3000 |
| N#Cc1c(N)nc(SCc2csc(Nc3ccc(F)cc3)n2)c(C#N)c1N1CCCCC1 [Example 6] | 45 | > 3000 | 1810 |
| COc1nc(SCc2csc(-c3ccc(Cl)cc3)n2)c(C#N)c(N2CCCCC2)c1C#N [Example 35, 2-({[2-(4-Chlorophenyl)-1,3-thiazol-4-yl]methyl}thio)-6-methoxy-4-(piperidin-1-yl)pyridine-3,5-dicarbonitrile] | 8.6 | > 3000 | > 3000 |
| CN1CCN(c2c(C#N)c(N)nc(SCc3csc(-c4ccc(Cl)cc4)n3)c2C#N)CC1 [Example 4] | 12 | > 3000 | > 3000 |
| N#Cc1c(N)nc(SCc2csc(-c3ccc(Cl)cc3)n2)c(C#N)c1N1CCC(O)CC1 [Example 1, 2-Amino-6-({[2-(4-chlorophenyl)-1,3-thiazol-4-yl]methyl}thio)-4-(4-hydroxypiperidin-1-yl)pyridine-3,5-dicarbonitrile] | 1.3 | 116 | 686 |
| N#Cc1c(SCc2csc(-c3ccc(Cl)cc3)n2)nc(N2CCC(O)C2)c(C#N)c1N1CCCCC1 (stereo not drawn) [Example 30] | 5.7 | 56 | 1030 |
| N#Cc1c(N)nc(SCc2ccc[n+]([O-])c2)c(C#N)c1N1CCCCC1 [Example 27] | 0.3 | 0.9 | 63 |
| N#Cc1c(N)nc(SCc2coc(-c3ccc(Cl)cc3)n2)c(C#N)c1N1CCCCC1 [Example 37, 2-Amino-6-({[2-(4-chlorophenyl)-1,3-oxazol-4-yl]methyl}sulfanyl)-4-(piperidin-1-yl)pyridine-3,5-dicarbonitrile] | 2.2 | 403 | 357 |
